Experimental data: ChEMBL document CHEMBL1151142, “Triterpenoids and Flavonoids from Hyptis albida” (J Nat Prod, 1990)

Tested on: Artemia
Assay: Toxicity against brine shrimp
Type: organism-based
Conditions: in vivo

Structure (SMILES)	LC50 [ppm]
CC1(C)CC[C@@]23CC[C@]4(C)[C@@](CC[C@@H]5[C@@]6(C)CC[C@H](O)C(C)(C)[C@@H]6CC[C@]54C)(OC2=O)[C@@H]3C1	> 700
CC1(C)CC[C@@]23CC[C@]4(C)[C@@](OC2=O)([C@@H]3C1)[C@H]1O[C@H]1[C@@H]1[C@@]2(C)CC[C@H](O)C(C)(C)[C@@H]2CC[C@]14C	> 700
CC1(C)CC[C@@]23CC[C@]4(C)[C@@](C=C[C@@H]5[C@@]6(C)CC[C@H](O)C(C)(C)[C@@H]6CC[C@]54C)(OC2=O)[C@@H]3C1	> 700
COc1ccc(-c2oc3cc(OC)cc(O)c3c(=O)c2OC)cc1	> 700
CC(=O)O[C@H]1CC[C@]2(C)[C@H]3CC=C4[C@@H]5CC(C)(C)CC[C@]5(C(=O)O)CC[C@@]4(C)[C@]3(C)CC[C@H]2C1(C)C [ACETYL OLEANOLIC ACID]	> 700
COc1ccc(-c2cc(=O)c3c(O)cc(OC)cc3o2)cc1 [APIGENIN DIMETHYLETHER]	> 700
C=C(C)[C@@H]1CC[C@]2(C(=O)O)CC[C@]3(C)[C@H](CC[C@@H]4[C@@]5(C)CC[C@H](O)C(C)(C)[C@@H]5CC[C@]43C)[C@@H]12 [BETULINIC ACID]	> 700
COc1ccc(-c2oc3cc(O)cc(O)c3c(=O)c2OC)cc1 [ERMANIN]	> 700
COc1ccc(-c2cc(=O)c3c(O)c(OC)c(OC)c(OC)c3o2)cc1 [GARDENIN B]	> 700
COc1ccc(-c2cc(=O)c3c(O)c(OC)c(O)c(OC)c3o2)cc1 [NEVADENSIN]	> 700
CC1(C)CC[C@]2(C(=O)O)CC[C@]3(C)C(=CC[C@@H]4[C@@]5(C)CC[C@H](O)C(C)(C)[C@@H]5CC[C@]43C)[C@@H]2C1 [OLEANOLIC_ACID]	> 700
C[C@H]1[C@H](C)CC[C@]2(C(=O)O)CC[C@]3(C)C(=CC[C@@H]4[C@@]5(C)CC[C@H](O)C(C)(C)[C@@H]5CC[C@]43C)[C@H]12 [URSOLIC ACID]	> 700
